A short description of the experiment: Inhibition of HIV-1 isolate YTA48P HIV-1 gp120.

As usually defined, the IC50 is the concentration needed to halve the response being measured. `CC1(C)CC(NC(=O)C(=O)Nc2ccc(Cl)cc2)CC(C)(C)N1` [N-(4-chlorophenyl)-N'-(2,2,6,6-tetramethylpiperidin-4-yl)-oxalamide] registered an IC50 of 610 nM. That is a sub-micromolar value.
